Reference: US9462808B2, “Pesticidal compositions” (Syngenta Participants AG, priority 2010, dated 2016)
Read-outs that look alike come from different tables or passages of the source.

Key:
[1] = test system: Rhopalosiphum padi (cereal aphid); experiment: Activity against Rhopalosiphum padi (cereal aphid) on wheat, spray with safener cloquintocet, 6 days after application (Example B1); type: in vivo; conditions: 144 h
Protocol: One replicate consisted of 4 wheat plants per pot. […] 9 days after seeding all wheat plants (10replicates) were sprayed with respective test solutions. […] 6 days after application aphid mortality and phytotoxicity were evaluated. […] Additionally the average plant height per replicate was measured.

[2] = test system: Nilaparvata lugens (brown plant hopper, BPH); experiment: Activity against Nilaparvata lugens (brown plant hopper, BPH) on rice, spray with safeners, 7 d after application (Example B2); type: in vivo; conditions: 168 h
Protocol: Eight replicates (pots with rice plants) were sprayed with respective test solutions. Test solutions contained the formulated test compound and the safener cloquintocet and N-(2-methoxybenzoyl)-4-[(methylaminocarbonyl)amino]-benzenesulfonamide at different ratios. 4 pots were infested with plant hopper nymphs right after application. 7d after application BPH mortality and plant safety were evaluated. […] Assessment on plant safety was done by measuring the average plant height per replicate.

SMILES | melting point | further results
CCOC(=O)OC1=C(c2c(F)ccc(C)c2Cl)C(=O)N(OCOC)C12CCN(OC)CC2 [Compound P1ii.61] | 116 to 119 °C | –
COCON1C(=O)C(c2c(C)cc(Cl)cc2C)=C(O)C12CCN(OC)CC2 [Compound P2ii.104] | 176 to 178 °C | –
CON1CCC2(CC1)C(O)=C(c1c(C)cc(C)cc1C)C(=O)N2OCCOC1CCCCO1 (stereo not shown) [Compound P2ii.22] | 135 to 137 °C | –
CON1CCC2(CC1)C(O)=C(c1c(C)cc(Cl)cc1C)C(=O)N2OC1CCCO1 (stereo not shown) [Compound P2ii.105] | 137 to 139 °C | –
CON1CCC2(CC1)C(O)=C(c1cc(Br)c(C)cc1C)C(=O)N2OC [Compound P2ii.75] | 86 to 87 °C | –
COCON1C(=O)C(c2c(F)ccc(C)c2Cl)=C(O)C12CCN(OC)CC2 [Compound P2ii.60] | 155 to 158 °C | –
COCON1C(=O)C(c2c(C)cc(-c3ccc(Cl)cc3)cc2C)=C(O)C12CCN(OC)CC2 [Compound P2ii.15, 3-(4′-Chloro-3,5-dimethyl-biphenyl-4-yl)-4-hydroxy-8-methoxy-1-methoxymethoxy-1,8-diaza-spiro[4.5]dec-3-en-2-one] | 128 °C (dec.) | –
CON1CCC2(CC1)C(O)=C(c1cc(C)c(C)cc1Br)C(=O)N2C [Compound P2.23] | 191 to 193 °C | –
CON1CCC2(CC1)C(O)=C(c1cc(Br)c(C)cc1C)C(=O)N2C [Compound P2.28] | 182 to 183 °C | –
CON1CCC2(CC1)C(O)=C(c1cc(C)ccc1C)C(=O)N2C [Compound P2.1] | 121 to 123 °C | –
CON1CCC2(CC1)C(O)=C(c1cc(C)c(C)cc1Cl)C(=O)N2C [Compound P2.26, 3-(2-Chloro-4,5-dimethyl-phenyl)-4-hydroxy-8-methoxy-1-methyl-1,8-diaza-spiro[4.5]dec-3-en-2-one] | 191 to 192 °C | –
CCOC(=O)OC1=C(c2c(C)cc(Cl)cc2C)C(=O)N(OC)C12CCN(OC)CC2 [Compound P1ii.114] | 122 to 125 °C | –
CON1CCC2(CC1)C(O)=C(c1cc(C)c(C)cc1C)C(=O)N2C [Compound P2.25] | 183 to 186 °C | –
CON1CCC2(CC1)C(O)=C(c1c(C)cc(C)cc1C)C(=O)N2OCC1CCCCC1 [Compound P2ii.96] | 169 to 172 °C | –
COCCON1C(=O)C(c2cc(Br)c(C)cc2C)=C(O)C12CCN(OC)CC2 [Compound P2ii.73] | 63 to 64 °C | –
COCON1C(=O)C(c2cc(C)ccc2C)=C(OC)C12CCN(OC)CC2 [Compound P1ii.31] | 91 to 93 °C | –
COCCON1C(=O)C(c2cc(Br)c(F)cc2C)=C(O)C12CCN(OC)CC2 [Compound P2ii.87] | 71 to 74 °C | –
CON1CCC2(CC1)C(O)=C(c1c(C)cc(Cl)cc1C)C(=O)N2OC [Compound P2ii.102] | 88 to 92 °C | –
CCOC(=O)OC1=C(c2c(C)cc(C)cc2C)C(=O)N(CC)C12CCN(OC)CC2 [Compound P1.8] | 101 to 103 °C | –
CCOC(=O)OC1=C(c2c(C)cc(Cl)cc2C)C(=O)N(C)C12CCN(OC)CC2 [Compound P1.29] | – | mortality at 25 ppm ([1]; read-out: Efficacy (% mortality) against cereal aphids (Rhopalosiphum padi), test compound 25 ppm, adjuvant Mero 0.1% v/v, ratio AI:safener cell blank (no safener), wheat, 6 days after application, Abbott's formula): 97%; mortality at 25 ppm ([1]; read-out: Efficacy (% mortality) against cereal aphids (Rhopalosiphum padi), test compound 25 ppm, adjuvant Mero 0.1% v/v, safener cloquintocet, ratio AI:safener 1:1, wheat, 6 days after application, Abbott's formula): 96.6%; mortality at 25 ppm ([1]; read-out: Efficacy (% mortality) against cereal aphids (Rhopalosiphum padi), test compound 25 ppm, adjuvant Mero 0.1% v/v, safener cloquintocet, ratio AI:safener 1:2, wheat, 6 days after application, Abbott's formula): 96.9%; mortality at 12.5 ppm ([2]; read-out: % mortality, corr., 12.5 ppm AI, Cloquintocet, ratio AI:safener 0.9:1, 7 d after application): 98%; mortality at 12.5 ppm ([2]; read-out: % mortality, corr., 12.5 ppm AI, Safener 2, ratio AI:safener 0.9:1, 7 d after application): 65%; mortality at 25 ppm ([2]; read-out: % mortality, corr., 25 ppm AI, Cloquintocet, ratio AI:safener 1.9:1, 7 d after application): 100%; mortality at 25 ppm ([2]; read-out: % mortality, corr., 25 ppm AI, Safener 2, ratio AI:safener 1.9:1, 7 d after application): 95%; mortality at 50 ppm ([2]; read-out: % mortality, corr., 50 ppm AI, Safener 2, ratio AI:safener 1.25:1, 7 d after application): 100%; mortality at 100 ppm ([2]; read-out: % mortality, corr., 100 ppm AI, Safener 2, ratio AI:safener 7.5:1, 7 d after application): 100%; mortality at 200 ppm ([2]; read-out: % mortality, corr., 200 ppm AI, Safener 2, ratio AI:safener 15:1, 7 d after application): 100%
COCCON1C(=O)C(c2c(C)cc(Cl)cc2C)=C(O)C12CCN(OC)CC2 [Compound P2ii.101] | 161 to 164 °C | –
COCON1C(=O)C(c2cc(C)ccc2C)=C(OC(=O)CC(C)(C)C)C12CCN(OC)CC2 [Compound P1ii.5] | 93 to 95 °C | –
CCN1C(=O)C(c2c(C)cc(C)cc2C)=C(O)C12CCN(OC)CC2 [Compound P2.11] | 218 to 221 °C | –
CON1CCC2(CC1)C(O)=C(c1c(C)cc(C)cc1C)C(=O)N2CC1CC1 [Compound P2.8, 1-Cyclopropylmethyl-4-hydroxy-8-methoxy-3-(2,4,6-trimethyl-phenyl)-1,8-diaza-spiro[4.5]dec-3-en-2-one] | 223 to 225 °C | –
CCOC(=O)OC1=C(c2cc(C)c(C)cc2Br)C(=O)N(C)C12CCN(OC)CC2 [Compound P1.20] | 158 to 159 °C | –
COCON1C(=O)C(c2cc(Br)c(F)cc2C)=C(O)C12CCN(OC)CC2 [Compound P2ii.89] | 64 to 67 °C | –
CCOC(=O)OC1=C(c2cc(C)ccc2C)C(=O)N(C)C12CCN(OC)CC2 [Compound P1.1] | 96 to 110 °C | –
CCOC(=O)OC1=C(c2cc(C)c(C)cc2Cl)C(=O)N(C)C12CCN(OC)CC2 [Compound P1.22] | 149 to 150 °C | –
